Assay [1] has as its target PLK4 (h) (Homo sapiens, UniProt O00444). The assay is described as follows: PLK-4 human kinase inhibition, scintillation proximity assay (SPA). The assay is classed as biochemical. The following applies: read-out: PLK4 pIC50 (converted).
Assay [2] concerns the target AuroraB (h) (Homo sapiens, UniProt Q96GD4). The assay is described as follows: Aurora-B human kinase inhibition, SPA. The assay is classed as biochemical. The settings on record: read-out: AuroraB pIC50 (converted). In short, it runs like this: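 SPA with biotinylated peptide (3 μM) in 60 mM Hepes pH 7.5, Mg/Mn 3 mM each, 0.5 μM ATP plus [γ-33P]ATP, AuroraB at 0.5 μg/ml. The reaction runs 60 min at room temperature and is stopped with EDTA and streptavidin PVT beads. 33P-substrate is read by scintillation imaging.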

For assay [3], the target named is GSK3β (h) (Homo sapiens, UniProt P49841). The assay is described as follows: GSK-3β human kinase inhibition, SPA. The assay is classed as biochemical. The settings on record: read-out: GSK3b pIC50 (converted). Put shortly:
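Scintillation proximity assay: GSK3β (1 μg/ml) with 1 μM biotinylated peptide, 1 μM ATP plus [γ-33P]ATP in Tris pH 7.4, MgCl2, DTT. 60 min at room temperature, stopped with EDTA and streptavidin PVT beads; phosphorylation read by Leadseeker imaging.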

Assay [4] deals with CDK1/CyclinB (h) (Homo sapiens, UniProt P06493). Kind of assay: CDK1/CyclinB human kinase inhibition, Invitrogen's FRET assay (Z'lyte). The assay is classed as biochemical. The settings on record: read-out: CDK1 pIC50 (converted). In short, it runs like this:
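Z'lyte FRET assay: human CDK1/CyclinB (0.2 μg/ml) with 2 μM Ser/Thr peptide 12 and 10 μM ATP in 50 mM Hepes pH 7.5, MgCl2, EGTA, Brij-35, 60 min at room temperature. Protease development 60 min, then emission ratio 460/538 nm read with excitation at 390 nm.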

Assay [5] addresses PLK3 (h) (Homo sapiens, UniProt Q9H4B4). The assay is described as follows: PLK3 human kinase inhibition, SPA. The assay is classed as biochemical. The settings on record: read-out: PLK3 pIC50 (converted). Put shortly:
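SPA: PLK3 (h) at 30 μg/ml with 2 μM biotinylated peptide, 0.1 μM ATP plus 2 nM [γ-33P]ATP in 50 mM Hepes pH 8.0, 2 mM MnCl2 and 1 mM DTT. Incubated 20 min at room temperature, then stopped with EDTA and streptavidin PVT beads. Scintillation imaged on Leadseeker.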

In assay [6] the test system is HCT-116. Kind of assay: Cellular proliferation assay (Alamar blue), HCT-116. It is filed as cell-based. The settings on record: Homo sapiens, 10% FCS, 72 hours with compound, Alamar blue 4 h. In short, it runs like this:
(§1)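 Cells were seeded in medium with 10% FCS at 37° C, 5% CO2, left 24 h without compound, then exposed to compounds for 72 h. Viability was read with Alamar blue (resazurin 9 μg/ml, K-ferrocyanide and K-ferricyanide 90 μM each), 6 h for U87-MG, 4 h for HCT-116, 24 h for A2780 and MDA-MB-231.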

Assay [7] relates to H1299. The assay is described as follows: Cellular proliferation assay (Alamar blue), H1299. It is filed as cell-based. The settings on record: Homo sapiens, NCI-H1299; 10% FCS; 72 hours with compound; Alamar blue 4 h. Put shortly:
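This proliferation assay on NCI-H1299 cells used an initial 24-hour compound-free incubation after seeding, followed by 72 hours of compound treatment with 10% FCS serum at 37° C. and 5% (v/v) CO2. Viable cells were quantified by a 4 h Alamar blue incubation and fluorescent plate reading at 544 nm/590 nm, and effects were expressed relative to control cells.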
(In general: Alamar Blue is a resazurin reagent that responds to reducing activity.)

Assay [8] has as its system U87-MG. The assay is described as follows: Cellular proliferation assay (Alamar blue), U87-MG. The following applies: Homo sapiens, U-87 MG; 10% FCS; 72 hours with compound; Alamar blue 6 h; read-out: U87-MG (cellular proliferation assay, Table 4) (converted). It is filed as cell-based. Put shortly:
as §1

The subject of assay [9] is A2780. The assay is described as follows: Cellular proliferation assay (Alamar blue), A2780. The assay is classed as cell-based. The settings on record: Homo sapiens, 10% FCS, 72 hours with compound, Alamar blue 24 h, read-out: A2780 (cellular proliferation assay, Table 4) (converted). Put shortly:
as §1

The structures appear in SMILES notation.

Chain of PLK3 (h) (Q9H4B4 whole entry): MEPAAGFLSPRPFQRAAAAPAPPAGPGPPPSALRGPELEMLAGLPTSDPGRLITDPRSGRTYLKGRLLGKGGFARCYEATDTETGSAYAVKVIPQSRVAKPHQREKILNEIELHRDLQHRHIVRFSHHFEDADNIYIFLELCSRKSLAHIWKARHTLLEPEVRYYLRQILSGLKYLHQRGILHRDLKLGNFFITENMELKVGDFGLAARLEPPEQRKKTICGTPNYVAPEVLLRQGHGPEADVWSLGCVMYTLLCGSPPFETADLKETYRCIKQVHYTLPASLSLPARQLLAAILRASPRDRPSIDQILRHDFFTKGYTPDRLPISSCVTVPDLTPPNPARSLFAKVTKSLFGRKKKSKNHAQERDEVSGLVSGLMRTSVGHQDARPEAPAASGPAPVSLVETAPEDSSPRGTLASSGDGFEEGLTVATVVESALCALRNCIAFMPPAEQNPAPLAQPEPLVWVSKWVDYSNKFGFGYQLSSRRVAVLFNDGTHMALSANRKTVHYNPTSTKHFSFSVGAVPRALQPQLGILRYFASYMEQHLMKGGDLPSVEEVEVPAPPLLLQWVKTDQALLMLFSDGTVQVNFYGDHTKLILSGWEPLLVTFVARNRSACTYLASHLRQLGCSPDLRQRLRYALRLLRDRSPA
Chain of PLK4 (h) (O00444 whole entry): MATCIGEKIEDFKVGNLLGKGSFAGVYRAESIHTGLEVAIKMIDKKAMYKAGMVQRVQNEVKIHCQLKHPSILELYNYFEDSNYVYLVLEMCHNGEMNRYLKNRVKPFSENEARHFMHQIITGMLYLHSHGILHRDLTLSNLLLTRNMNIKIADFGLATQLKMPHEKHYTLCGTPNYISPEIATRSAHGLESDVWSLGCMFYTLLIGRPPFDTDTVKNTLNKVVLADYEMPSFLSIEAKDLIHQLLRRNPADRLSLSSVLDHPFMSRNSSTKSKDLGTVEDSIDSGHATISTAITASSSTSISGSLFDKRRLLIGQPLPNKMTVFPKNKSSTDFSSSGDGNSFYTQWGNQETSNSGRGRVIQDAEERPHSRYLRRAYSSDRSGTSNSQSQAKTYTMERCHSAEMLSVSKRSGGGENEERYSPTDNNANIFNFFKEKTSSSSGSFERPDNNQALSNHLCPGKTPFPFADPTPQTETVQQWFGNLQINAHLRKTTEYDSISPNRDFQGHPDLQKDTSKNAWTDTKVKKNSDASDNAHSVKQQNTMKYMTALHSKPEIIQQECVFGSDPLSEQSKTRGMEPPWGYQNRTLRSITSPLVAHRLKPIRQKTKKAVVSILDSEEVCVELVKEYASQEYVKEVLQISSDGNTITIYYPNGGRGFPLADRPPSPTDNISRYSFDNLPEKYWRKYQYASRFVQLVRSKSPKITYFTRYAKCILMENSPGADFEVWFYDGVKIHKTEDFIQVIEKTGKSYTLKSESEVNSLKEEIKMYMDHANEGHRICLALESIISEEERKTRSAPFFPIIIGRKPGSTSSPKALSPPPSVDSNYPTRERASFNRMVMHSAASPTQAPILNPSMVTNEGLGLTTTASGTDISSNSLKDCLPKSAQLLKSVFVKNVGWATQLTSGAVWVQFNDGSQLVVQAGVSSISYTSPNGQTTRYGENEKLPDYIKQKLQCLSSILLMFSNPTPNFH
Chain of GSK3β (h) (P49841 whole entry): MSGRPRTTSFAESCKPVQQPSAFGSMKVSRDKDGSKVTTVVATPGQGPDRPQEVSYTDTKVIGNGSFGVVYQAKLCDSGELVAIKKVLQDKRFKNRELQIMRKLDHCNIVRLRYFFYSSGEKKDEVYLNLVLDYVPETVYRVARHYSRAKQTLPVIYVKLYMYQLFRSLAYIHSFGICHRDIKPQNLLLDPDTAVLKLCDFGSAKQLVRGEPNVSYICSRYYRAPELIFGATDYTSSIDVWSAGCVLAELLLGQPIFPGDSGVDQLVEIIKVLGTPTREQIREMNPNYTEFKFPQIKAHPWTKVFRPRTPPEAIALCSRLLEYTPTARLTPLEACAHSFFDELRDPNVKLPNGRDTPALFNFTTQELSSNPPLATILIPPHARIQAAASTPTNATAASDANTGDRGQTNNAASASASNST
Chain of CDK1/CyclinB (h) (P06493 whole entry): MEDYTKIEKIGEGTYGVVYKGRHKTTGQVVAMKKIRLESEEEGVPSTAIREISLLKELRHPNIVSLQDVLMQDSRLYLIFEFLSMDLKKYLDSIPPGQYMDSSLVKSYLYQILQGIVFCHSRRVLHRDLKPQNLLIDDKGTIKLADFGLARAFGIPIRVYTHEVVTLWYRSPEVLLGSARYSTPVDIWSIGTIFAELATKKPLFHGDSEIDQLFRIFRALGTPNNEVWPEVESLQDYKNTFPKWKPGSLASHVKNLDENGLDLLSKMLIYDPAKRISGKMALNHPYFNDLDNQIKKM
Chain of CDK1/CyclinB (h) (P14635 whole entry partner): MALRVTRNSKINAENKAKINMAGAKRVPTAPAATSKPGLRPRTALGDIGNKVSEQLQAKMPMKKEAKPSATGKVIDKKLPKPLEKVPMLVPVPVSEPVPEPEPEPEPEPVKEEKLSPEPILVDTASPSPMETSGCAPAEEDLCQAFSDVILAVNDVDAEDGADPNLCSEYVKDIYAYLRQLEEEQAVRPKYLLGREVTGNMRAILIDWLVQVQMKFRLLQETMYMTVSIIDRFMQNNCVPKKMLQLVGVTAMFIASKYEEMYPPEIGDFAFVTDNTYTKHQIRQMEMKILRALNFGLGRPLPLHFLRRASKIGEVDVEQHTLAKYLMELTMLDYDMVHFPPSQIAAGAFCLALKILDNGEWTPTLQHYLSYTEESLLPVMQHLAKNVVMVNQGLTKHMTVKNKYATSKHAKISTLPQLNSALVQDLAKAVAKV
Chain of AuroraB (h) (Q96GD4 whole entry): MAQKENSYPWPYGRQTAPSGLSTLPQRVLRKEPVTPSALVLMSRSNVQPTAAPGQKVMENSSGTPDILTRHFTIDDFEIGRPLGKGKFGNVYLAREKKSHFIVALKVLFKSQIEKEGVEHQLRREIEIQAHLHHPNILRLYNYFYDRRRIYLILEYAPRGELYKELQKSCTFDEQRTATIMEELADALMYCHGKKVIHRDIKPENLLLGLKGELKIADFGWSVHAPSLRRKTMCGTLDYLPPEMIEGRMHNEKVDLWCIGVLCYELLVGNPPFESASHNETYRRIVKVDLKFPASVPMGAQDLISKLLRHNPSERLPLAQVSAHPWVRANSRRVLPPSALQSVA

Consider `CN1CCCNC(=O)[C@H](CO)NCc2cccc(c2)Nc2nccc(n2)-c2ccc(cc2)C1` [Compound 113], for which the IC50 is 1.17 µM in assay [1]; > 10 µM in assay [2]; > 10 µM in [3]; > 10 µM in [4]; > 10 µM in assay [5]; > 10 µM in assay [6]. The IC50 in [7], in [8] and in assay [9] was > 10 µM in each case.
Turning to `O=C1NCCNc2cc(ccn2)-c2ccnc(n2)Nc2ccc(N3CCOCC3)c(c2)CN2CCCC12` (stereo not drawn) [Compound 161], the IC50 in assay [1] is 1.58 µM; in assay [2] it was 6.17 µM; in [3] it was 0.182 µM; in [4], 5.13 µM; in [5], > 10 µM; in [6] it was 4.68 µM. Moreover, the IC50 in [7] was 10 µM; in assay [8], > 10 µM; in [9] it was 9.77 µM.
For `O=C1NCCNCc2ccc(cc2)-c2ccnc(n2)Nc2ccc(N3CCOCC3)c(c2)CN[C@H]1CO` [Compound 115], the IC50 in assay [1] is 1.35 µM; in [2] it was > 10 µM; in assay [3], > 10 µM; in assay [4] it was > 10 µM; in assay [5] it was > 10 µM; in assay [6], > 10 µM. Further, the IC50 in assay [7], in assay [8] and in [9] was > 10 µM in each case.
For `CN1CCCNC(=O)C2CCN(CC2)Cc2cccc(c2)Nc2nccc(n2)-c2ccc(cc2)C1` [Compound 78], the IC50 in [1] was 4.9 µM; in assay [2] it was > 10 µM; in assay [3] it was > 10 µM; in [4] it was > 10 µM; in assay [5], > 10 µM; in [6] it was > 10 µM. The IC50 in assay [7] was > 10 µM; in assay [8] it was 7.08 µM; in assay [9] it was > 10 µM.
Consider `C[C@@H]1NCc2cc(ccc2N2CCOCC2)Nc2nccc(n2)-c2cccc(c2)OCCCNC1=O` [Compound 88], for which the IC50 was 0.447 µM in assay [1]; 6.46 µM in [2]; 0.195 µM in assay [3]; 4.79 µM in assay [4]; > 10 µM in assay [5]; 1.62 µM in [6]. Further, the results for the IC50 in [7], in assay [8] and in [9] were 8.13 µM, 3.55 µM and 3.39 µM, respectively.
For the compound `COc1ccc2cc1CN(C)CCCNC(=O)CN1CCN(CC1)Cc1cc(cc(NC(C)C)c1)Nc1nccc-2n1` [Compound 130], the IC50 in [1] is 1.23 µM; in [2] it was 6.31 µM; in assay [3], 5.37 µM; in assay [4] it was 7.76 µM; in assay [5], > 10 µM; in [6] it was > 10 µM. Besides, the IC50 in [7], in assay [8] and in [9] was > 10 µM in each case.
On to `CN1CCNC(=O)C2CCN(CC2)Cc2cccc(c2)Nc2nccc(n2)-c2ccc(cc2)C1` [Compound 82], for which the IC50 in [1] was 6.31 µM; in assay [2], > 10 µM; in assay [3], > 10 µM; in [4], > 10 µM; in assay [5], > 10 µM; in assay [6], > 10 µM. For the same compound, the IC50 in assay [7], in assay [8] and in assay [9] was > 10 µM in each case.
Consider `COc1ccc2cc1CN(C)CCNC(=O)CN1CCN(CC1)Cc1cc(cc(NC(C)C)c1)Nc1nccc-2n1` [Compound 142], for which the IC50 was 3.31 µM in assay [1]; > 10 µM in assay [2]; > 10 µM in [3]; 8.51 µM in [4]; > 10 µM in [5]; > 10 µM in assay [6]. In addition, the values for the IC50 in assay [7], in assay [8] and in assay [9] were > 10 µM, 5.62 µM and > 10 µM, respectively.
As for `O=C1NCCCOc2cccc(c2)-c2ccnc(n2)Nc2ccc(N3CCOCC3)c(c2)CN[C@H]1Cc1ccccc1` [Compound 91], the IC50 in assay [1] was 1.41 µM; in assay [2], > 10 µM; in [3] it was 2.69 µM; in assay [4] it was > 10 µM; in assay [5], > 10 µM; in [6] it was 6.17 µM. The IC50 in assay [7], in [8] and in assay [9] was > 10 µM throughout.
In the case of `O=C1NCCOc2ccc(cc2)-c2ccnc(n2)Nc2ccc(N3CCOCC3)c(c2)CN2CCC1CC2` [Compound 6], the IC50 was 0.316 µM in [1]; 1.66 µM in assay [2]; 0.741 µM in [3]; 0.195 µM in [4]; > 10 µM in assay [5]; 0.105 µM in assay [6]. For the same compound, the results for the IC50 in assay [7], in assay [8] and in assay [9] were 0.38 µM, 0.575 µM and 0.195 µM, respectively.
With `O=C1NCCCOc2ccc(cc2)-c2ccnc(n2)Nc2ccc(N3CCOCC3)c(c2)CN2CCC[C@@H]12` [Compound 7], the IC50 in assay [1] was 0.316 µM; in assay [2], 6.31 µM; in [3], 0.372 µM; in [4], 3.47 µM; in [5] it was > 10 µM; in assay [6], 6.03 µM. For the same compound, the IC50 in assay [7] is > 10 µM; in assay [8] it was 4.37 µM; in [9] it was > 10 µM.
Consider `COc1ccc2cc1CN(C)CCCNC(=O)CN1CCN(CC1)Cc1cc(Br)cc(c1)Nc1nccc-2n1` [Compound 144], for which the IC50 in assay [1] is 4.17 µM; in [2] it was 7.94 µM; in [3], > 10 µM; in assay [4], > 10 µM; in [5] it was > 10 µM; in assay [6] it was > 10 µM. Moreover, the IC50 in assay [7] is > 10 µM; in assay [8], 9.33 µM; in [9], > 10 µM.
Consider `CN(C)C(=O)c1ccc2cc1CN1CCC[C@H]1C(=O)NCc1cccc(c1)-c1ccnc(n1)N2` [Compound 24], for which the IC50 in assay [1] was 0.0776 µM; in assay [2], > 10 µM; in [3] it was 0.0871 µM; in assay [4], > 10 µM; in assay [5] it was > 10 µM; in assay [6], 3.8 µM. The IC50 in assay [7] is > 10 µM; in assay [8], 4.27 µM; in [9] it was 5.89 µM.
In the case of `C[C@@H]1NCc2cc(ccc2N2CCOCC2)Nc2nccc(n2)-c2ccc(cc2)OCCCNC1=O` [Compound 5], the IC50 in [1] was 0.162 µM; in assay [2] it was > 10 µM; in [3] it was 0.135 µM; in assay [4] it was > 10 µM; in assay [5], > 10 µM; in [6] it was 1.74 µM. For the same compound, the IC50 in assay [7], in [8] and in [9] was > 10 µM each time.
For `COc1ccc2cc1CN(C)CCNC(=O)C1CCN(CC1)Cc1cc(cc(N3CCOCC3)c1)Nc1nccc-2n1` [Compound 77], the IC50 in assay [1] is 4.79 µM; in assay [2] it was > 10 µM; in assay [3] it was 3.8 µM; in assay [4], > 10 µM; in [5] it was > 10 µM; in assay [6] it was > 10 µM. For the same compound, the IC50 in assay [7], in [8] and in assay [9] was > 10 µM in each case.
In the case of `COc1ccc2cc1CN1CCN(CC1)CC(=O)N(C)CCN(C)c1ccc(cn1)-c1ccnc(n1)N2` [Compound 14], the IC50 was 1.35 µM in assay [1]; > 10 µM in assay [2]; 4.9 µM in assay [3]; > 3.02 µM in [4]; > 10 µM in assay [5]; 5.89 µM in [6]. Further, the IC50 in [7], in assay [8] and in assay [9] was > 10 µM in each case.
Take `CN1CCCNC(=O)[C@@H]2CCCN2Cc2cc(cc(N3CCOCC3)c2)Nc2nccc(n2)-c2ccc(cc2)C1` [Compound 16]: the IC50 in [1] is 0.617 µM; in assay [2], > 10 µM; in [3] it was > 10 µM; in assay [4] it was > 10 µM; in assay [5], > 10 µM; in assay [6] it was > 10 µM. Further, the IC50 was > 10 µM in assay [7], 8.13 µM in [8] and 9.55 µM in [9].

These data come from patent US8609836B2, “4-aryl-2-anilino-pyrimidines” (Janssen Pharmaceutica NV, priority 2008, dated 2013).
